Test results: ChEMBL document CHEMBL1201862, “PubChem BioAssay data set” (2004)
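Grown in 96-well plates, cells were treated for 48 hours with each compound at five concentrations. Insufficient inhibition: endpoint recorded as highest concentration tested. GI50 = concentration required for 50% inhibition of growth.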 Active and inactive are the calls of the source. Rule as the data show it: active = GI50 up to about 1.1 µM and inactive = higher.

Columns and labels:
Test in all cases: NCI-60 cell line screen, 48 h
SN12C = tested on: SN12C
CCRF-CEM = tested on: CCRF-CEM
BT-549 = tested on: BT-549
OVCAR-4 = tested on: OVCAR-4
NCI/ADR-RES = tested on: NCI/ADR-RES
OVCAR-5 = tested on: OVCAR-5
HCT-116 = tested on: HCT-116
NCI-H23 = tested on: NCI-H23
UACC-257 = tested on: UACC-257
A549 = tested on: A549
MDA-N = tested on: MDA-N
OVCAR-3 = tested on: OVCAR-3
SF-539 = tested on: SF-539
UO-31 = tested on: UO-31
K562 = tested on: K562
MDA-MB-435 = tested on: MDA-MB-435
EKVX = tested on: EKVX
786-0 = tested on: 786-0
SR = tested on: SR

SMILES	GI50 (SN12C)	GI50 (CCRF-CEM)	GI50 (BT-549)	GI50 (OVCAR-4)	GI50 (NCI/ADR-RES)	GI50 (OVCAR-5)	GI50 (HCT-116)	GI50 (NCI-H23)	GI50 (UACC-257)	GI50 (A549)	GI50 (MDA-N)	GI50 (OVCAR-3)	GI50 (SF-539)	GI50 (UO-31)	GI50 (K562)	GI50 (MDA-MB-435)	GI50 (EKVX)	GI50 (786-0)	GI50 (SR)
CC(Nc1ccc(Cl)cc1)c1ccncc1 (configuration not stated)	> 100 µM (inactive)	83.9 µM (inactive)	> 100 µM (inactive)	> 100 µM (inactive)	61.5 µM (inactive)	> 100 µM (inactive)	53.3 µM (inactive)	56.8 µM (inactive)	55.7 µM (inactive)	> 100 µM (inactive)	> 100 µM (inactive)	> 100 µM (inactive)	> 100 µM (inactive)	63.1 µM (inactive)	75.3 µM (inactive)	> 100 µM (inactive)	75.5 µM (inactive)	> 100 µM (inactive)	–
CC1=C(C(=O)NNC(=O)Cc2ccccc2)CC(C(=O)NNC(=O)Cc2ccccc2)=C(C)N1	> 100 µM (inactive)	–	> 100 µM (inactive)	> 100 µM (inactive)	> 100 µM (inactive)	> 100 µM (inactive)	> 100 µM (inactive)	> 100 µM (inactive)	> 100 µM (inactive)	> 100 µM (inactive)	> 100 µM (inactive)	> 100 µM (inactive)	> 100 µM (inactive)	> 100 µM (inactive)	–	89.1 µM (inactive)	> 100 µM (inactive)	> 100 µM (inactive)	–
CC[C@@]1(O)C(=O)OCc2c1cc1n(c2=O)Cc2c-1nc1ccccc1c2/C=N\NC(=O)C1CCCN1 (some centres not stated)	0.0275 µM (active)	–	1.49 µM (inactive)	19.6 µM (inactive)	0.513 µM (active)	4.93 µM (inactive)	0.354 µM (active)	0.0509 µM (active)	3.01 µM (inactive)	0.826 µM (active)	1.8 µM (inactive)	4.42 µM (inactive)	< 0.01 µM (active)	0.457 µM (active)	0.163 µM (active)	2 µM (inactive)	9.55 µM (inactive)	0.0461 µM (active)	< 0.01 µM (active)
Cn1c(=O)c2c(nc3sc4ccccc4c(=O)n32)n(C)c1=O	> 100 µM (inactive)	–	> 100 µM (inactive)	> 100 µM (inactive)	> 100 µM (inactive)	> 100 µM (inactive)	> 100 µM (inactive)	> 100 µM (inactive)	> 100 µM (inactive)	–	> 100 µM (inactive)	> 100 µM (inactive)	> 100 µM (inactive)	> 100 µM (inactive)	> 100 µM (inactive)	> 100 µM (inactive)	> 100 µM (inactive)	> 100 µM (inactive)	–
c1ccc([P+](Cc2ccccc2C[P+](c2ccccc2)(c2ccccc2)c2ccccc2)(c2ccccc2)c2ccccc2)cc1	> 100 µM (inactive)	–	65.9 µM (inactive)	–	> 100 µM (inactive)	> 100 µM (inactive)	29.4 µM (inactive)	87.3 µM (inactive)	> 100 µM (inactive)	> 100 µM (inactive)	30.3 µM (inactive)	86.7 µM (inactive)	> 100 µM (inactive)	> 100 µM (inactive)	42.5 µM (inactive)	42.8 µM (inactive)	–	> 100 µM (inactive)	–
O=C(O)/C=C/c1c2ccc(=O)c(O)c-2oc2c(O)c(O)ccc12	15.3 µM (inactive)	9.59 µM (inactive)	83.9 µM (inactive)	30.3 µM (inactive)	65.3 µM (inactive)	78.2 µM (inactive)	17 µM (inactive)	> 100 µM (inactive)	> 100 µM (inactive)	32.3 µM (inactive)	16.1 µM (inactive)	45 µM (inactive)	–	33.9 µM (inactive)	21.7 µM (inactive)	17.4 µM (inactive)	24.9 µM (inactive)	18.9 µM (inactive)	31.8 µM (inactive)
NCC(=O)Nc1ccccc1	> 100 µM (inactive)	–	> 100 µM (inactive)	> 100 µM (inactive)	> 100 µM (inactive)	> 100 µM (inactive)	> 100 µM (inactive)	> 100 µM (inactive)	> 100 µM (inactive)	> 100 µM (inactive)	> 100 µM (inactive)	> 100 µM (inactive)	–	> 100 µM (inactive)	60.5 µM (inactive)	> 100 µM (inactive)	> 100 µM (inactive)	> 100 µM (inactive)	> 100 µM (inactive)
CCOC(=O)C1(NC(=O)OC(C)(C)C)CCc2[nH]oc(=O)c2C1 (configuration not stated)	> 100 µM (inactive)	> 100 µM (inactive)	> 100 µM (inactive)	> 100 µM (inactive)	> 100 µM (inactive)	> 100 µM (inactive)	> 100 µM (inactive)	> 100 µM (inactive)	> 100 µM (inactive)	> 100 µM (inactive)	> 100 µM (inactive)	> 100 µM (inactive)	> 100 µM (inactive)	> 100 µM (inactive)	> 100 µM (inactive)	> 100 µM (inactive)	> 100 µM (inactive)	> 100 µM (inactive)	–
COc1ccc2c(c1)[nH]c1c3ccc(OC)cc3oc(=O)c21	> 100 µM (inactive)	> 100 µM (inactive)	57.3 µM (inactive)	> 100 µM (inactive)	> 100 µM (inactive)	> 100 µM (inactive)	> 100 µM (inactive)	> 100 µM (inactive)	> 100 µM (inactive)	> 100 µM (inactive)	0.9 µM (active)	> 100 µM (inactive)	> 100 µM (inactive)	> 100 µM (inactive)	> 100 µM (inactive)	0.91 µM (active)	> 100 µM (inactive)	0.432 µM (active)	–
O=C1c2ccccc2C(=O)c2c(NC(=O)c3ccc4c5c(ncnc35)-c3ccccc3C4=O)cccc21	> 100 µM (inactive)	–	48 µM (inactive)	> 100 µM (inactive)	> 100 µM (inactive)	> 100 µM (inactive)	> 100 µM (inactive)	33.4 µM (inactive)	> 100 µM (inactive)	> 100 µM (inactive)	> 100 µM (inactive)	37.1 µM (inactive)	52.4 µM (inactive)	> 100 µM (inactive)	> 100 µM (inactive)	> 100 µM (inactive)	> 100 µM (inactive)	25.1 µM (inactive)	91.4 µM (inactive)
O=c1nc(N2CCCCC2)sc2[nH]c3ccccc3c12	> 100 µM (inactive)	–	> 100 µM (inactive)	> 100 µM (inactive)	12.6 µM (inactive)	11.1 µM (inactive)	–	12.2 µM (inactive)	> 100 µM (inactive)	> 100 µM (inactive)	> 100 µM (inactive)	88.9 µM (inactive)	> 100 µM (inactive)	24.8 µM (inactive)	> 100 µM (inactive)	> 100 µM (inactive)	> 100 µM (inactive)	> 100 µM (inactive)	> 100 µM (inactive)
NS(=O)(=O)c1nc(S(=O)(=O)O)c2[nH]cnc2n1	> 100 µM (inactive)	–	> 100 µM (inactive)	> 100 µM (inactive)	> 100 µM (inactive)	> 100 µM (inactive)	> 100 µM (inactive)	> 100 µM (inactive)	> 100 µM (inactive)	> 100 µM (inactive)	> 100 µM (inactive)	> 100 µM (inactive)	> 100 µM (inactive)	> 100 µM (inactive)	> 100 µM (inactive)	> 100 µM (inactive)	> 100 µM (inactive)	> 100 µM (inactive)	> 100 µM (inactive)
Cc1cc(OCC(=O)N/N=C/C(Br)=C/c2ccccc2)nc(SCC(=O)N/N=C/C(Br)=C/c2ccccc2)n1	> 100 µM (inactive)	> 100 µM (inactive)	> 100 µM (inactive)	42 µM (inactive)	53.6 µM (inactive)	> 100 µM (inactive)	> 100 µM (inactive)	> 100 µM (inactive)	> 100 µM (inactive)	–	49.4 µM (inactive)	> 100 µM (inactive)	–	> 100 µM (inactive)	> 100 µM (inactive)	> 100 µM (inactive)	80 µM (inactive)	34.8 µM (inactive)	> 100 µM (inactive)
COc1cc2c3cc1Oc1c(OC)c(OC)cc4c1C(Cc1ccc(O)c(c1)-c1cc(ccc1OC)CC3N(C)CC2)N(C)CC4 (configuration not stated)	15.6 µM (inactive)	–	19.7 µM (inactive)	29.4 µM (inactive)	25.9 µM (inactive)	44.8 µM (inactive)	12.3 µM (inactive)	21.4 µM (inactive)	21 µM (inactive)	24.5 µM (inactive)	13.6 µM (inactive)	21.6 µM (inactive)	7.08 µM (inactive)	13.9 µM (inactive)	6 µM (inactive)	23.6 µM (inactive)	25.6 µM (inactive)	29 µM (inactive)	0.659 µM (active)
CC(NC(=O)/C(=C/c1ccccc1)NC(=O)c1ccccc1)C(=O)O (configuration not stated)	92.3 µM (inactive)	> 100 µM (inactive)	> 100 µM (inactive)	–	40.5 µM (inactive)	> 100 µM (inactive)	91.2 µM (inactive)	47.4 µM (inactive)	> 100 µM (inactive)	> 100 µM (inactive)	55.8 µM (inactive)	> 100 µM (inactive)	20.6 µM (inactive)	91.4 µM (inactive)	> 100 µM (inactive)	38.8 µM (inactive)	40.4 µM (inactive)	39.5 µM (inactive)	37.6 µM (inactive)
O=C(NNC(=S)NCc1ccccc1)c1csc(NC(=S)NC2CCCCC2)n1	34.4 µM (inactive)	46.2 µM (inactive)	36.9 µM (inactive)	–	31.3 µM (inactive)	> 100 µM (inactive)	22.3 µM (inactive)	43 µM (inactive)	18.6 µM (inactive)	37.2 µM (inactive)	28.9 µM (inactive)	42.1 µM (inactive)	38 µM (inactive)	21.8 µM (inactive)	–	26.7 µM (inactive)	19.2 µM (inactive)	45.8 µM (inactive)	31.5 µM (inactive)
